Experimental data reported in patent US11691969B2, “Pyridazinones as PARP7 inhibtors” (Ribon Therapeutics, Inc., priority 2019, dated 2023).

Target: PARP7 (Homo sapiens (Human), UniProt Q7Z3E1)
Test: TR-FRET assay: displacement of biotinylated Probe A from the TIPARP active site (Enzymatic Assay for Inhibition of PARP7)
Type: binding
Details: TIPARP 6 nM, Probe A 2 nM, 25° C.
Method: Example A. Enzymatic Assay for Inhibition of PARP7
Displacement of Probe A, a biotinylated probe binding to the TIPARP active site, was measured using a time-resolved fluorescence energy transfer (TR-FRET) assay. 20 nL of a dose response curve of each test compound was spotted in black 384-well polystyrene proxiplates (Perkin Elmer) using a Mosquito (TTP Labtech). Reactions were performed in a 8 μl volume by adding 6 μL of TIPARP and Probe A in assay buffer (20 mM HEPES pH=8, 100 mM NaCl, 0.1% bovine serum albumin, 2 mM DTT and 0.002% Tween20), incubating with test compound at 25° C. for 30 min, then adding 2 μL of ULight-anti 6×His and LANCE Eu-W1024 labeled streptavidin (Perkin Elmer). The final concentrations of TIPARP and Probe A were 6 nM and 2 nM, respectively. The final concentration of ULight-anti 6×His and LANCE Eu-W1024 labeled streptavidin were 4 nM and 0.25 nM, respectively. Reactions were incubated at 25° C. for an additional 30 min, then read on an Envision platereader equipped with a LANCE/DELFIA top mirror (Perkin Elmer) using excitation of 320 nm and emission of 615 nm and […] with a […]. The ratio of the 665/615 nm emission were calculated for each well to determine the amount of complex of TIPARP and Probe Ain each well. Control wells containing a negative control of 0.25% DMSO vehicle or a positive control of 100 μM 5-(5-(piperidin-4-yloxy)isoindolin-2-yl)-4-(trifluoromethyl)pyridazin-3(2H)-one were used to calculate the % inhibition as described below:
[formula] where TRFcmpd is the TR-FRET ratio from the compound treated well, TRFmin is the TR-FRET ratio from the 5-(5-(piperidin-4-yloxy)isoindolin-2-yl)-4-(trifluoromethyl)pyridazin-3(2H)-one—treated positive control well and TRFmax is the TR-FRET ratio from the DMSO-treated negative control well. The % inhibition values were plotted as a function of compound concentration and the following 4-parameter fit was applied to derive the IC50 values:
[formula] where top and bottom are normally allowed to float, but may be fixed at 100 or 0 respectively in a 3-parameter fit. The Hill Coefficient is normally allowed to float but may also be fixed at 1 in a 3-parameter fit. Y is the % inhibition and X is the compound concentration. Synthesis of Probe A

Chain of PARP7 (Q7Z3E1 whole entry): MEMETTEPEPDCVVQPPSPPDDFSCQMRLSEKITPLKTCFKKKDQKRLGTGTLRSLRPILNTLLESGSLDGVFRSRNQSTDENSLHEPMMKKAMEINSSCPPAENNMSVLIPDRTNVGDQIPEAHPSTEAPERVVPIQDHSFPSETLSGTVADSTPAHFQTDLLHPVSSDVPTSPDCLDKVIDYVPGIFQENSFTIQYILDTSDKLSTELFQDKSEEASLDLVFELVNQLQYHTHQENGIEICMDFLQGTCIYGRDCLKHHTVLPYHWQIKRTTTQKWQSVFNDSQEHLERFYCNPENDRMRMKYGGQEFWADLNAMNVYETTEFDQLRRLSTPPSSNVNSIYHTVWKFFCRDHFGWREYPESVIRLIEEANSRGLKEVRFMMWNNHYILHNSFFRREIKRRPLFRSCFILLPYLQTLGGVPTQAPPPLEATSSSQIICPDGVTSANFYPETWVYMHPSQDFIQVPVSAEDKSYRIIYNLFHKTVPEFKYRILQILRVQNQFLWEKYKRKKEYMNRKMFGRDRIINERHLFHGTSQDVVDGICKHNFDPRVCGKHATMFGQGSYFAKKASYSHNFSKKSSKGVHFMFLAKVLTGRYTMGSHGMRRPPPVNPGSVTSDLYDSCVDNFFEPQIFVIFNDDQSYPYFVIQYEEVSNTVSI

SMILES	IC50 [nM]
C[C@@H](CO[C@@H]1CCN(C2CCN(c3ccc(C#N)cn3)CC2)C1=O)Nc1cn[nH]c(=O)c1C(F)(F)F [Example 14B, 6-(4-((R)-2-oxo-3-((S)-2-((6-oxo-5-(trifluoromethyl)-1,6-dihydropyridazin-4-yl)amino)propoxy)pyrrolidin-1-yl)piperidin-1-yl)nicotinonitrile]	< 100
C[C@@H](CO[C@H]1CCN(C2CCN(c3ncc(C(F)F)cn3)CC2)C1=O)Nc1cn[nH]c(=O)c1C(F)(F)F [Example 15A, 5-(((S)-1-(((S)-1-(1-(5-(difluoromethyl)pyrimidin-2-yl)piperidin-4-yl)-2-oxopyrrolidin-3-yl)oxy)propan-2-yl)amino)-4-(trifluoromethyl)pyridazin-3(2H)-one]	100 to 1000
C[C@@H](CO[C@@H]1CCN(C2CCN(c3ncc(C(F)F)cn3)CC2)C1=O)Nc1cn[nH]c(=O)c1C(F)(F)F [Example 15B, 5-(((S)-1-(((R)-1-(1-(5-(difluoromethyl)pyrimidin-2-yl)piperidin-4-yl)-2-oxopyrrolidin-3-yl)oxy)propan-2-yl)amino)-4-(trifluoromethyl)pyridazin-3(2H)-one]	< 100
C[C@@H](CO[C@@H]1CCN(C2CCN(c3ncc(Cl)cn3)CC2)C1=O)Nc1cn[nH]c(=O)c1C(F)(F)F [Example 16, 5-(((S)-1-(((R)-1-(1-(5-chloropyrimidin-2-yl)piperidin-4-yl)-2-oxopyrrolidin-3-yl)oxy)propan-2-yl)amino)-4-(trifluoromethyl)pyridazin-3(2H)-one]	< 100
COC[C@@H](CO[C@H]1CCN(C2CCN(c3ccc(C#N)cn3)CC2)C1=O)Nc1cn[nH]c(=O)c1C(F)(F)F [Example 17A, 6-(4-((S)-3-((S)-3-methoxy-2-((6-oxo-5-(trifluoromethyl)-1,6-dihydropyridazin-4-yl)amino)propoxy)-2-oxopyrrolidin-1-yl)piperidin-1-yl)nicotinonitrile]	100 to 1000
COC[C@@H](CO[C@@H]1CCN(C2CCN(c3ccc(C#N)cn3)CC2)C1=O)Nc1cn[nH]c(=O)c1C(F)(F)F [Example 17B, 6-(4-((R)-3-((S)-3-methoxy-2-((6-oxo-5-(trifluoromethyl)-1,6-dihydropyridazin-4-yl)amino)propoxy)-2-oxopyrrolidin-1-yl)piperidin-1-yl)nicotinonitrile]	< 100
C[C@@H](COC1CCN(C2CCN(c3ncc(C(F)(F)F)cn3)CC2)C1)Nc1cn[nH]c(=O)c1C(F)(F)F (stereo partly drawn) [Example 21, 4-(trifluoromethyl)-5-(((2S)-1-((1-(1-(5-(trifluoromethyl)pyrimidin-2-yl)piperidin-4-yl)pyrrolidin-3-yl)oxy)propan-2-yl)amino)pyridazin-3(2H)-one]	100 to 1000
C[C@@H](COCC(=O)N(C)C1CCN(c2ncc(C(F)(F)F)cn2)CC1)Oc1cn[nH]c(=O)c1C(F)(F)F [Example 25, (S)-N-methyl-2-(2-((6-oxo-5-(trifluoromethyl)-1,6-dihydropyridazin-4-yl)oxy)propoxy)-N-(1-(5-(trifluoromethyl)pyrimidin-2-yl)piperidin-4-yl)acetamide]	< 100
C[C@@H](COC1CCN(C2CCN(c3ncc(C(F)F)cn3)CC2)C1=O)Oc1cn[nH]c(=O)c1C(F)(F)F (stereo partly drawn) [Example 27, 5-(((2S)-1-((1-(1-(5-(difluoromethyl)pyrimidin-2-yl)piperidin-4-yl)-2-oxopyrrolidin-3-yl)oxy)propan-2-yl)oxy)-4-(trifluoromethyl)pyridazin-3(2H)-one]	< 100
C[C@@H](COCC(=O)N(C)C1CCN(c2ncc(C(F)(F)F)cn2)CC1)Oc1cn[nH]c(=O)c1Br [Example 28, (S)-2-(2-((5-bromo-6-oxo-1,6-dihydropyridazin-4-yl)oxy)propoxy)-N-methyl-N-(1-(5-(trifluoromethyl)pyrimidin-2-yl)piperidin-4-yl)acetamide]	< 100
C[C@@H](CN(C)C1CCN(C2CCN(c3ncc(C(F)(F)F)cn3)CC2)C1=O)Nc1cn[nH]c(=O)c1C(F)(F)F (stereo partly drawn) [Example 29, 5-(((S)-1-(methyl(2-oxo-1-(1-(5-(trifluoromethyl)pyrimidin-2-yl)piperidin-4-yl)pyrrolidin-3-yl)amino)propan-2-yl)amino)-4-(trifluoromethyl)pyridazin-3(2H)-one]	< 100
C[C@@H](COC1CCN(C2CCN(c3ccc(C#N)cn3)CC2)C1=O)Oc1cn[nH]c(=O)c1C(F)(F)F (stereo partly drawn) [Example 30, 6-(4-(2-oxo-3-((S)-2-((6-oxo-5-(trifluoromethyl)-1,6-dihydropyridazin-4-yl)oxy)propoxy)pyrrolidin-1-yl)piperidin-1-yl)nicotinonitrile]	< 100

Continued, values first:

IC50 [nM]	SMILES
100 to 1000	COC[C@@H](CO[C@H]1CCN(C2CCN(c3cnc(C(F)(F)F)cn3)CC2)C1=O)Nc1cn[nH]c(=O)c1C(F)(F)F [Example 18A, 5-(((S)-1-methoxy-3-(((S)-2-oxo-1-(1-(5-(trifluoromethyl)pyrazin-2-yl)piperidin-4-yl)pyrrolidin-3-yl)oxy)propan-2-yl)amino)-4-(trifluoromethyl)pyridazin-3(2H)-one]
< 100	COC[C@@H](CO[C@@H]1CCN(C2CCN(c3cnc(C(F)(F)F)cn3)CC2)C1=O)Nc1cn[nH]c(=O)c1C(F)(F)F [Example 18B]
100 to 1000	COC[C@@H](CO[C@H]1CCN(C2CCN(c3ncc(C(F)(F)F)cn3)CC2)C1=O)Nc1cn[nH]c(=O)c1C(F)(F)F [Example 19A, 5-(((S)-1-methoxy-3-(((S)-2-oxo-1-(1-(5-(trifluoromethyl)pyrimidin-2-yl)piperidin-4-yl)pyrrolidin-3-yl)oxy)propan-2-yl)amino)-4-(trifluoromethyl)pyridazin-3(2H)-one]
< 100	COC[C@@H](CO[C@@H]1CCN(C2CCN(c3ncc(C(F)(F)F)cn3)CC2)C1=O)Nc1cn[nH]c(=O)c1C(F)(F)F [Example 19B, 5-(((S)-1-methoxy-3-(((R)-2-oxo-1-(1-(5-(trifluoromethyl)pyrimidin-2-yl)piperidin-4-yl)pyrrolidin-3-yl)oxy)propan-2-yl)amino)-4-(trifluoromethyl)pyridazin-3(2H)-one]
< 100	C[C@@H](CO[C@H]1CCN(C2CCN(c3ncc(C(F)(F)F)cn3)CC2)C1=O)Oc1cn[nH]c(=O)c1C(F)(F)F [Example 20A, 5-(((S)-1-(((S)-2-oxo-1-(1-(5-(trifluoromethyl)pyrimidin-2-yl)piperidin-4-yl)pyrrolidin-3-yl)oxy)propan-2-yl)oxy)-4-(trifluoromethyl)pyridazin-3(2H)-one]
< 100	C[C@@H](CO[C@@H]1CCN(C2CCN(c3ncc(C(F)(F)F)cn3)CC2)C1=O)Oc1cn[nH]c(=O)c1C(F)(F)F [Example 20B, 5-(((S)-1-(((R)-2-oxo-1-(1-(5-(trifluoromethyl)pyrimidin-2-yl)piperidin-4-yl)pyrrolidin-3-yl)oxy)propan-2-yl)oxy)-4-(trifluoromethyl)pyridazin-3(2H)-one]
100 to 1000	C[C@@H](CO[C@H]1CCN(C2CCN(c3cnc(C(F)F)cn3)CC2)C1=O)Nc1cn[nH]c(=O)c1C(F)(F)F [Example 22A, 5-(((S)-1-(((S)-1-(1-(5-(difluoromethyl)pyrazin-2-yl)piperidin-4-yl)-2-oxopyrrolidin-3-yl)oxy)propan-2-yl)amino)-4-(trifluoromethyl)pyridazin-3(2H)-one]
< 100	C[C@@H](CO[C@@H]1CCN(C2CCN(c3cnc(C(F)F)cn3)CC2)C1=O)Nc1cn[nH]c(=O)c1C(F)(F)F [Example 22B, 5-(((S)-1-(((R)-1-(1-(5-(difluoromethyl)pyrazin-2-yl)piperidin-4-yl)-2-oxopyrrolidin-3-yl)oxy)propan-2-yl)amino)-4-(trifluoromethyl)pyridazin-3(2H)-one]
< 100	C[C@@H](CN[C@@H]1CCN(C2CCN(c3ncc(C(F)(F)F)cn3)CC2)C1=O)Nc1cn[nH]c(=O)c1C(F)(F)F [Example 26B, 5-(((S)-1-(((R)-2-oxo-1-(1-(5-(trifluoromethyl)pyrimidin-2-yl)piperidin-4-yl)pyrrolidin-3-yl)amino)propan-2-yl)amino)-4-(trifluoromethyl)pyridazin-3(2H)-one]
< 100	C[C@@H](CO[C@H]1CCN(C2CCN(c3cnc(C(F)(F)F)cn3)CC2)C1=O)Oc1cn[nH]c(=O)c1C(F)(F)F [Example 31A, 5-(((S)-1-(((S)-2-oxo-1-(1-(5-(trifluoromethyl)pyrazin-2-yl)piperidin-4-yl)pyrrolidin-3-yl)oxy)propan-2-yl)oxy)-4-(trifluoromethyl)pyridazin-3(2H)-one]
